These results are taken from patent US20240091372A1, “ANTI-DOPPEL ANTIBODY DRUG CONJUGATES” (SEOUL NATIONAL UNIVERSITY R&DB FOUNDATION, priority 2022, published 2024).

Test [1] deals with HCT116 xenograft tumor. As to the kind of experiment: In vivo efficacy in HCT116 xenograft tumor model. Particulars: for tumor growth suppression (KGDEVD-MMAE ADCs): same tumor model, FIG. 7. Set-up: species or system balb-c/nu mice. The protocol:
To assess the anti-tumor efficacy of anti-doppel ADCs, an HCT116 xenograft tumor model was used. HCT116 cells (1×10^^7 cells/mouse) were inoculated into the left flank of balb-c/nu mice. When the average tumor volume reach 70-100 mm^3, ADC was administered intravenously every 4 days for a total of 4 times. Tumor volume was measured every 4 days until the end of the experiments.

Test [2] has as its target doppel (human, UniProt Q9UKY0 26-152). As to the kind of experiment: cell-based or functional assay.

No end group written: not given here. *: point of attachment. MMAE = monomethyl auristatin E, CC[C@H](C)[C@@H]([C@@H](CC(=O)N1CCC[C@H]1[C@H](OC)[C@@H](C)C(=O)N[C@H](C)[C@@H](O)c1ccccc1)OC)N(C)C(=O)[C@@H](NC(=O)[C@H](C(C)C)N(C)*)C(C)C; p‑aminobenzylcarbamate = NC(=O)OCc1ccc(N*)cc1

Chain of doppel (Q9UKY0 26-152): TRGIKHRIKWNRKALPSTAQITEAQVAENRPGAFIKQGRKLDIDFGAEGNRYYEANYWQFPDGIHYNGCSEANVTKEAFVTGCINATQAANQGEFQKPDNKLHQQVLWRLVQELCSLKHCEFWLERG

For the molecule “4D1-KGDEVD-MMAE: ADC prepared as 3H9-KGDEVD-MMAE using anti-doppel mAb 4D1 (maleimide-KGDEVD-{p‑aminobenzylcarbamate-MMAE}; also: conjugated to mAb 4D1 through maleimide)”, in test [1], the “tumor growth suppression (KGDEVD-MMAE ADCs)” value was “effectively suppressed tumor growth”.

Consider “3H9-DEVD-MMAE: ADC prepared as 3H9-KGDEVD-MMAE except using maleimide-DEVD-MMAE (DEVD-{p‑aminobenzylcarbamate-MMAE}; not fully specified (N-terminus); also: conjugated to mAb 3H9 through maleimide)”, for which the “tumor growth suppression, ADCs with different linkers” value in test [1] (HCT116 xenograft, FIG. 6) is recorded as “effectively suppressed tumor growth”.

“3D5-KGDEVD-MMAE: ADC prepared as 3H9-KGDEVD-MMAE using anti-doppel mAb 3D5 (maleimide-KGDEVD-{p‑aminobenzylcarbamate-MMAE}; also: conjugated to mAb 3D5 through maleimide)”: the “tumor growth suppression (KGDEVD-MMAE ADCs)” value in test [1] is listed as “effectively suppressed tumor growth”.

B1: 3H9-KGDEVD-MMAE (name=SEQ ID NO:65; structure=SEQ ID NO:66) (antibody, human IgG1, kappa, V domains shown)
VH: EVQLVESGGGLVQPGGSLRLSCAASGFTFSSYAMSWVRQAPGKGLEWVSGISGSGSRTDYADSVKGRFTISRDNSKNTLYLQMNSLRAEDTAVYYCAKVYTYTRGFAFDLWGQGTLVTVSS
VL: DIQMTQSPSSLSASVGDRVTITCRASQSISNYLNWYQQKPGKAPKLLIYAASTLQSGVPSRFSGSGSGTDFTLTISSLQPEDFATYYCQQSYSFPYTFGQGTKVEIKR
modifications: maleimide-KGDEVD-MMAE (SEQ ID NO:77) linker-payload on reduced Cys residues of the partially reduced mAb; positions and chain not stated
For the molecule B1, in test [2], the “IC50 (nM), cytotoxicity on HCT116 cells, viability after 72 hours” value was 39.3 nM.

B2: 3H9-vc-MMAE (antibody, human IgG1, kappa, V domains shown)
VH: B1 VH
VL: B1 VL
modifications: mc-Val-Cit-PABA-MMAE linker-payload on reduced Cys residues of the partially reduced mAb; positions and chain not stated
Consider B2, for which the “IC50 (nM), cytotoxicity on HCT116 cells, viability after 72 hours” value in test [2] was 28.6 nM.
